# Source: the supplement of paper PMC11451515
# Tested on: SEM cells
# Assay: cell viability relative to DMSO control; higher = less cytotoxic
# Conditions: 48 h
# Method in brief: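 NOMO1 or SEM (500 cells/well) or P12-Ichikawa (1000 cells/well) leukemia cells were adapted for at least four passages in each medium. They were seeded in 1536-well plates (5 μl) and pin-dosed with library compounds in DMSO over an 11-point threefold series, 47 μM to 0.79 nM. CellTiter-Glo One luminescence was read after 48 h at 37°C. Viability is the per-plate percentage relative to DMSO wells, with cell-free wells as background.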
# [1] = HPLM + 10% dialyzed FBS, 0.000781 µM
# [2] = HPLM + 10% dialyzed FBS, 0.00234 µM
# [3] = HPLM + 10% dialyzed FBS, 0.00702 µM
# [4] = HPLM + 10% dialyzed FBS, 0.0211 µM
# [5] = HPLM + 10% dialyzed FBS, 0.0632 µM
# [6] = HPLM + 10% dialyzed FBS, 0.19 µM
# [7] = HPLM + 10% dialyzed FBS, 0.569 µM
# [8] = HPLM + 10% dialyzed FBS, 1.71 µM
# [9] = HPLM + 10% dialyzed FBS, 5.12 µM
# [10] = HPLM + 10% dialyzed FBS, 15.4 µM
# [11] = HPLM + 10% dialyzed FBS, 46.1 µM
# [12] = RPMI 5 mM glucose + 10% FBS, 0.000781 µM
# [13] = RPMI 5 mM glucose + 10% FBS, 0.00234 µM
# [14] = RPMI 5 mM glucose + 10% FBS, 0.00702 µM
# [15] = RPMI 5 mM glucose + 10% FBS, 0.0211 µM
# [16] = RPMI 5 mM glucose + 10% FBS, 0.0632 µM
# [17] = RPMI 5 mM glucose + 10% FBS, 0.19 µM
# [18] = RPMI 5 mM glucose + 10% FBS, 0.569 µM
# [19] = RPMI 5 mM glucose + 10% FBS, 1.71 µM
# [20] = RPMI 5 mM glucose + 10% FBS, 5.12 µM
# [21] = RPMI 5 mM glucose + 10% FBS, 15.4 µM
# [22] = RPMI 5 mM glucose + 10% FBS, 46.1 µM
# [23] = RPMI 5 mM glucose + 10% dialyzed FBS, 0.000781 µM
# [24] = RPMI 5 mM glucose + 10% dialyzed FBS, 0.00234 µM
# [25] = RPMI 5 mM glucose + 10% dialyzed FBS, 0.00702 µM
# [26] = RPMI 5 mM glucose + 10% dialyzed FBS, 0.0211 µM
# [27] = RPMI 5 mM glucose + 10% dialyzed FBS, 0.0632 µM
# [28] = RPMI 5 mM glucose + 10% dialyzed FBS, 0.19 µM
# [29] = RPMI 5 mM glucose + 10% dialyzed FBS, 0.569 µM
# [30] = RPMI 5 mM glucose + 10% dialyzed FBS, 1.71 µM
# [31] = RPMI 5 mM glucose + 10% dialyzed FBS, 5.12 µM
# [32] = RPMI 5 mM glucose + 10% dialyzed FBS, 15.4 µM
# [33] = RPMI 5 mM glucose + 10% dialyzed FBS, 46.1 µM
Compound,cell viability [1] [%],cell viability [2] [%],cell viability [3] [%],cell viability [4] [%],cell viability [5] [%],cell viability [6] [%],cell viability [7] [%],cell viability [8] [%],cell viability [9] [%],cell viability [10] [%],cell viability [11] [%],cell viability [12] [%],cell viability [13] [%],cell viability [14] [%],cell viability [15] [%],cell viability [16] [%],cell viability [17] [%],cell viability [18] [%],cell viability [19] [%],cell viability [20] [%],cell viability [21] [%],cell viability [22] [%],cell viability [23] [%],cell viability [24] [%],cell viability [25] [%],cell viability [26] [%],cell viability [27] [%],cell viability [28] [%],cell viability [29] [%],cell viability [30] [%],cell viability [31] [%],cell viability [32] [%],cell viability [33] [%]
CNC(=O)[C@H](CC/1=C/N=C\2/C=C\C\C=C12)NC(=O)[C@H](CC(C)C)CC(=O)NO,104,103,108,111,120,104,112,118,120,105,101,111,134,122,133,117,118,116,110,132,120,114,95,99.2,104,100,113,88.9,99.7,102,94.4,102,90.1
NC/1=N/C(=O)N(/C=N1)[C@@H]2O[C@H](CO)[C@@H](O)[C@H]2O,85.7,107,117,106,76.2,100,104,105,75.4,24.5,3.65,95.7,107,99.5,102,70.9,110,90.4,94.8,75.1,35.3,7.85,90.8,87.8,82,90.1,69.7,93.5,82.3,74.6,38.9,6.43,3.29
CO/N=C(/C(=O)N[C@@H]1C(=O)N2C(C(=O)O)=C(CSC(=O)c3ccco3)CS[C@H]12)c1csc(N)n1,62.8,72.5,71.3,68.5,77.7,76.5,82.3,77.6,76.9,88.4,74.8,77.5,86.9,89.6,91.3,97.8,102,106,105,90.6,108,103,89.1,93.8,107,117,93,107,118,111,120,123,113
CCOC(=O)Nc1ccc(NCc2ccc(F)cc2)nc1N,111,104,119,102,105,117,94.9,114,99.9,115,101,117,121,119,117,125,118,118,116,109,116,65.3,115,98.9,120,128,131,128,138,113,104,115,80.2
CC[C@]1(O)C[C@@H]2CN(CCc3c([nH]c4ccccc34)[C@@](C(=O)OC)(c3cc4c(cc3OC)N(C)[C@H]3[C@@](O)(C(N)=O)[C@H](O)[C@]5(CC)C=CCN6CC[C@]43[C@@H]65)C2)C1,123,110,114,106,89.2,43.2,26.3,20.5,20,15.7,6.67,,,,,,,,,,,,118,104,124,124,97.8,44.8,26.6,24.3,20.4,16.3,5.01
O=[S+]([O-])(c1cccc2cnccc12)N1CCCNCC1,103,104,121,120,121,127,138,113,117,127,115,123,115,130,121,151,146,133,143,139,148,54.9,110,108,123,135,145,136,138,172,145,146,93.3
COC1=CC=C(C=C1O)C/2=C/C(=O)C3=C(O2)C=C(O[C@@H]4O[C@H](CO[C@@H]5O[C@@H](C)[C@H](O)[C@@H](O)[C@H]5O)[C@@H](O)[C@H](O)[C@H]4O)C=C3O,95.1,103,106,114,124,108,122,118,102,129,113,115,108,107,111,122,113,100,106,85.9,105,103,102,103,111,102,123,111,112,114,93.8,101,99.2
CC(C)Oc1ccc(C(=O)N[C@H](CNC(=O)CN(C)C)Cc2ccc(-c3cn4cccc([C@H](C)O)c4n3)cc2)cc1Cl,116,129,112,109,118,118,102,44.5,33.5,39.9,48.5,,,,,,,,,,,,117,119,117,125,111,111,111,38.2,34.4,29.4,35.5
